# The supplement of paper PMC10307832
# Assays:
# Assay in all cases: relative viability (nuclei count vs DMSO), 5 days (fraction); higher = more cells survive
# [1] = compound: C1CCC(CC1)N(CCNCCC2=C3C(=C(C=C2)O)NC(=O)CO3)C(=O)CCNCCC4=CC(=C(C=C4)Cl)Cl [AZ505] + Nc1nc2[nH]cc(CCc3ccc(C(=O)N[C@@H](CCC(=O)O)C(=O)O)cc3)c2c(=O)[nH]1 [Pemetrexed] (partner 0.2 µM)
# Procedure, shortened: (§1)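 Relative viability equals treated-well nuclei counts divided by vehicle-well nuclei counts. Counts came from 4× images of lung cancer cell lines grown in 1536-well plates for 5 days after pin-tool dosing on the day after seeding. Dosing used one drug alone or a fixed anchor-drug dose plus five library-drug doses (not always all listed) in √10 steps, and values are medians of duplicate plates.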
# [2] = compound: C1CCC(CC1)N(CCNCCC2=C3C(=C(C=C2)O)NC(=O)CO3)C(=O)CCNCCC4=CC(=C(C=C4)Cl)Cl [AZ505] + C[C@]1(O)C[C@@H](c2nc(-c3ccc4ccc(-c5ccccc5)nc4c3)c3c(N)nccn32)C1 [Linsitinib] (partner 1 µM)
# Procedure, shortened: as §1
# [3] = compound: C1CCC(CC1)N(CCNCCC2=C3C(=C(C=C2)O)NC(=O)CO3)C(=O)CCNCCC4=CC(=C(C=C4)Cl)Cl [AZ505] + Cc1nc(Nc2ncc(C(=O)Nc3c(C)cccc3Cl)s2)cc(N2CCN(CCO)CC2)n1 [Dasatinib] (partner 0.075 µM)
# Procedure, shortened: as §1
# [4] = compound: Cn1c(=O)n(-c2ccc(C(C)(C)C#N)cc2)c2c3cc(-c4cnc5ccccc5c4)ccc3ncc21 [Dactolisib] + CS(=O)(=O)CCNCc1ccc(-c2ccc3ncnc(Nc4ccc(OCc5cccc(F)c5)c(Cl)c4)c3c2)o1 [Lapatinib] (partner 2 µM)
# Procedure, shortened: as §1
Cell Line,relative viability ([1]; first compound 0.08 µM),relative viability ([1]; first compound 0.253 µM),relative viability ([1]; first compound 0.8 µM),relative viability ([1]; first compound 2.53 µM),relative viability ([1]; first compound 8 µM),relative viability ([2]; first compound 0.08 µM),relative viability ([2]; first compound 0.253 µM),relative viability ([2]; first compound 0.8 µM),relative viability ([2]; first compound 2.53 µM),relative viability ([2]; first compound 8 µM),relative viability ([3]; first compound 0.08 µM),relative viability ([3]; first compound 0.253 µM),relative viability ([3]; first compound 0.8 µM),relative viability ([3]; first compound 2.53 µM),relative viability ([3]; first compound 8 µM),relative viability ([4]; first compound 0.002 µM),relative viability ([4]; first compound 0.006325 µM),relative viability ([4]; first compound 0.02 µM),relative viability ([4]; first compound 0.06325 µM),relative viability ([4]; first compound 0.2 µM)
LK-2,0.215,0.254,0.294,0.283,0.313,0.408,0.703,0.578,0.427,0.812,0.254,0.327,0.415,0.431,0.366,0.804,0.831,0.807,0.474,0.235
NCI-H2126,0.58,0.628,0.719,0.713,0.629,0.681,0.724,0.721,0.711,0.68,0.578,0.579,0.601,0.646,0.586,0.826,0.799,0.745,0.641,0.476
NCI-H3122,0.196,0.197,0.196,0.201,0.199,0.963,1.03,0.911,1.01,0.967,0.729,0.829,0.806,0.661,0.899,1.07,1.02,1.03,1.08,0.795
NCI-H1975,0.289,0.311,0.309,0.307,0.301,0.907,0.923,0.783,0.919,0.955,0.343,0.358,0.425,0.343,0.495,0.796,0.767,0.643,0.327,0.284
NCI-H1944,0.748,0.558,0.796,0.499,0.597,1.15,1.12,1.23,0.922,1.07,0.212,0.188,0.246,0.203,0.224,0.808,0.814,0.758,0.412,0.378
LU99A,0.199,0.22,0.19,–,0.199,0.524,0.647,0.507,0.573,0.565,–,0.475,0.618,0.48,0.536,0.94,0.828,0.516,0.336,0.257
NCI-H2347,0.392,0.367,0.428,0.387,0.428,0.6,0.603,0.668,0.543,0.714,0.254,–,–,–,0.279,1.16,0.943,0.843,0.906,0.813
HCC-44,0.683,0.643,0.659,0.638,0.673,0.671,0.691,0.619,0.654,0.663,–,–,–,–,–,1.09,1,1,0.68,0.547
NCI-H1299,–,–,–,–,–,0.913,0.942,0.965,0.903,0.922,–,–,–,–,–,0.998,0.974,0.98,0.893,0.661
NCI-H727,–,–,–,–,–,0.388,0.24,0.272,0.427,0.275,0.28,0.274,0.372,–,0.504,0.753,0.648,0.994,0.363,0.345
LCLC-103H,0.453,0.491,0.457,0.519,0.448,1.01,0.807,1.03,1.06,1.07,0.407,0.415,0.393,0.481,0.451,–,–,–,–,–
ABC-1,–,–,–,–,–,0.636,0.889,0.935,0.901,0.697,0.539,0.524,0.542,0.58,0.515,1.18,1.04,0.982,0.808,0.707
NCI-H1650,0.352,0.396,0.351,0.402,0.446,–,–,–,–,–,0.298,0.281,0.37,0.321,0.295,0.847,0.701,0.73,0.449,0.431
ChaGo-K-1,0.26,0.268,0.28,0.252,0.258,–,–,–,–,–,0.663,0.702,0.616,0.657,0.604,–,–,–,–,–
SW 900,0.495,0.516,0.494,0.498,0.511,–,–,–,–,–,0.584,0.458,0.54,0.919,0.658,–,–,–,–,–
A549,–,–,–,–,–,0.452,0.503,0.622,0.565,0.562,–,–,–,–,–,1.07,0.769,0.674,0.224,0.145
NCI-H2342,0.711,0.737,0.836,0.776,0.853,–,–,–,–,–,0.312,0.317,0.316,0.346,0.351,–,–,–,–,–
NCI-H2170,0.254,0.257,0.238,0.253,0.264,–,–,–,–,–,0.541,0.608,0.444,0.695,0.509,0.263,0.289,0.262,0.235,0.222
NCI-H1623,–,–,–,–,–,–,–,–,–,–,0.488,0.466,0.598,0.479,0.612,–,–,–,–,–
NCI-H522,1,1.04,1.03,1.22,0.808,–,–,–,–,–,0.923,0.843,0.801,0.877,0.948,–,–,–,–,–
IA-LM,–,–,–,–,–,0.497,0.572,0.701,0.597,0.643,–,–,–,–,–,0.769,0.671,0.771,0.156,0.106
EBC-1,–,–,–,–,–,0.87,0.833,1.01,0.841,0.896,–,–,–,–,–,0.237,0.203,0.241,0.19,0.182
